The target in assay [1] is Cytochrome P450 3A4 (Homo sapiens, UniProt P08684). The assay is described as follows: Inhibition of CYP3A4 in microsomes.
The target of assay [2] is T1, Cytochrome P450 1A2 (Homo sapiens, UniProt P05177).
T1 sequence (P05177 whole entry): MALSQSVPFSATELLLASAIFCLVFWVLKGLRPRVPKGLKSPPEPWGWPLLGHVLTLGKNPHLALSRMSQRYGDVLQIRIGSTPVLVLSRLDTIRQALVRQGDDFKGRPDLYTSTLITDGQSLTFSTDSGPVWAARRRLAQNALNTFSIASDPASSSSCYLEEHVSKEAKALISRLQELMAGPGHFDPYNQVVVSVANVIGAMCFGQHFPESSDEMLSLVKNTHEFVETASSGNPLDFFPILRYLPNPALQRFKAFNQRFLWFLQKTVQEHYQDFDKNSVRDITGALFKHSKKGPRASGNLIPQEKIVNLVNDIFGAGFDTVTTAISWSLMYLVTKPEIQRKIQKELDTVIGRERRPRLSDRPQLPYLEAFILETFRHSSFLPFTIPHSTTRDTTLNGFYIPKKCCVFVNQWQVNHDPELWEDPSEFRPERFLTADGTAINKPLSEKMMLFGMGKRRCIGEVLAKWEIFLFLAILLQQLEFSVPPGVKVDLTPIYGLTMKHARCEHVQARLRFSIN
The assay is described as follows: Inhibition of CYP1A2 in microsomes. The assay is classed as ADME.

In assay [3] the target is Cytochrome P450 2C9 (Homo sapiens, UniProt P11712). The assay is described as follows: Inhibition of CYP2C9 in microsomes. The assay is classed as ADME.
Assay [4] concerns the target Cytochrome P450 2C19 (Homo sapiens, UniProt P33261). The assay can be described thus: Inhibition of CYP2C19 in microsomes. The assay is classed as ADME.
Assay [5] addresses Cytochrome P450 2D6 (Homo sapiens, UniProt P10635). The assay can be described thus: Inhibition of CYP2D6 in microsomes. The assay is classed as ADME.

Where only a bound is given, the exact number is not on record here.

The IC50 is the point on the concentration scale where inhibition reaches its midpoint. Lower therefore signals higher potency.

Cytochrome P450 3A4, sequence (P08684 whole entry): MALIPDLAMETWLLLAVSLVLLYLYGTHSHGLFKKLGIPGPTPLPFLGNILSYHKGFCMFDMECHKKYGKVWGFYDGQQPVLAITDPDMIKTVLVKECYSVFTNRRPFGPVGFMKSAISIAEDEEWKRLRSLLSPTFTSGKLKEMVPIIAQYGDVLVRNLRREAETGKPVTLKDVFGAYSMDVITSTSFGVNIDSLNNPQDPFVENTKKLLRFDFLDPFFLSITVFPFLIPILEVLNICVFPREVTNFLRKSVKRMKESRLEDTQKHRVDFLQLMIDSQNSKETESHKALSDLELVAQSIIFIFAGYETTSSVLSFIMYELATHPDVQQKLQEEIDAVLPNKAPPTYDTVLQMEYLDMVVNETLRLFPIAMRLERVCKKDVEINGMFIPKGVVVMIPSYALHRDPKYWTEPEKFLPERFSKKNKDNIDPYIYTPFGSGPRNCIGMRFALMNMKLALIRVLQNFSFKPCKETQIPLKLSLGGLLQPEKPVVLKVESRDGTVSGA
Cytochrome P450 2C9, sequence (P11712 whole entry): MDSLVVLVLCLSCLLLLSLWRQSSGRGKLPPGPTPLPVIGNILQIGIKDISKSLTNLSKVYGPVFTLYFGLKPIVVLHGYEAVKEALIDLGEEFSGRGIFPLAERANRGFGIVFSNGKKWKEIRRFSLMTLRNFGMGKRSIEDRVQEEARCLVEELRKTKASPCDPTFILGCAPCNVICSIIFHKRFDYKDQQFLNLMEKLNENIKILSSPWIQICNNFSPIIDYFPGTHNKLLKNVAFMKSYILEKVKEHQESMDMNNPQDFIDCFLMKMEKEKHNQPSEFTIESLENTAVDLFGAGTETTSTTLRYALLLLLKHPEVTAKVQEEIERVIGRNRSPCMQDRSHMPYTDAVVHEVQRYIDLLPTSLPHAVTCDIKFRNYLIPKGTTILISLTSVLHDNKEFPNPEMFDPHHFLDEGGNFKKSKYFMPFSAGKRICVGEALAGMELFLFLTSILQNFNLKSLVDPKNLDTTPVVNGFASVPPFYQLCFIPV
Cytochrome P450 2C19, sequence (P33261 whole entry): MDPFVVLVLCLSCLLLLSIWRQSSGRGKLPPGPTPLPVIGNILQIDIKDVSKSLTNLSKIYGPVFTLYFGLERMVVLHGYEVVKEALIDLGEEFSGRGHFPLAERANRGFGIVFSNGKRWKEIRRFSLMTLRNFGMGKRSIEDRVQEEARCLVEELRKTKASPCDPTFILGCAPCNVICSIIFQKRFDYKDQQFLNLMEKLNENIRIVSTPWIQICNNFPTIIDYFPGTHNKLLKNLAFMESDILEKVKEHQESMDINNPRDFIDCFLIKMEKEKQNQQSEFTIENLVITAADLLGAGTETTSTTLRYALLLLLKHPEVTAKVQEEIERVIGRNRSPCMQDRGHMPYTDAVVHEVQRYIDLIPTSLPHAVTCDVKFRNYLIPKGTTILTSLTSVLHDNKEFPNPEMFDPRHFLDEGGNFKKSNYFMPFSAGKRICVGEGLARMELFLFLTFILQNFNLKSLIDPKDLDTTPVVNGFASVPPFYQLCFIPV
Cytochrome P450 2D6, sequence (P10635 whole entry): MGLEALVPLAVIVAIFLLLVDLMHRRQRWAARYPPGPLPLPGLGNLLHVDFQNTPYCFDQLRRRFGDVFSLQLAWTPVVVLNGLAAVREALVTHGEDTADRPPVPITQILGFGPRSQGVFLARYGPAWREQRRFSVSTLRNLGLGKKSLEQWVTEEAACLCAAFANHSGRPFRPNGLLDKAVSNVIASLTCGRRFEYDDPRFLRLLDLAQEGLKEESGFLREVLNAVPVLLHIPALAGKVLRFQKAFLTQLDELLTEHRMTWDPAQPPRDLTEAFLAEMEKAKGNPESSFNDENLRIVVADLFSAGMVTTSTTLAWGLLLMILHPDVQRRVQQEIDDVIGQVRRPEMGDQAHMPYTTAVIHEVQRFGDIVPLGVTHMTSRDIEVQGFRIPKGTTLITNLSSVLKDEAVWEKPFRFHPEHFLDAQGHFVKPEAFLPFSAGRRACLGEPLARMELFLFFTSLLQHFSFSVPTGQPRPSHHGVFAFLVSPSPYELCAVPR

For `Cc1cc(C2=NC(C)(C)CN2)cc2[nH]c(-c3c(NCC(O)c4cccc(Cl)c4)cc[nH]c3=O)nc12` (configuration not stated), the IC50 came to 13 µM in assay [1], 11 µM in assay [2], 47 µM in assay [3] and 5.1 µM in assay [4].
On the same counts, the results for `Cc1cc(C2=NCCCN2)cc2[nH]c(-c3c(NCC(O)c4cccc(Cl)c4)cc[nH]c3=O)nc12` (configuration not stated) are 16 µM, 20 µM, 100 µM and 8.5 µM.
Turning to `Cc1cc(-n2ccnc2)cc2[nH]c(-c3c(N[C@H](CO)Cc4ccccc4)cc[nH]c3=O)nc12`, the IC50 in assay [5] was 0.56 µM; in assay [1] it was 0.06 µM; in assay [2] it was below 0.04 µM; in assay [3], below 0.04 µM; in assay [4] it was below 0.04 µM.
Turning to `Cc1cc(-c2ccccc2)cc2[nH]c(-c3c(N[C@H](CO)Cc4ccccc4)cc[nH]c3=O)nc12`, the IC50 in assay [1] was determined as 3.6 µM; in assay [2], 0.58 µM; in assay [3], 2.3 µM; in assay [4] it was 0.53 µM.
Turning to `Cc1cc(-c2ccc(F)cc2)cc2[nH]c(-c3c(N[C@H](CO)Cc4ccccc4)cc[nH]c3=O)nc12`, the IC50 in assay [1] amounted to 6.3 µM; in assay [2], 3.2 µM; in assay [3], 4 µM; in assay [4] it was 1 µM.
Take `Cc1cccc2[nH]c(-c3c(NCC(O)c4cccc(Cl)c4)cc[nH]c3=O)nc12` (configuration not stated): the half-inhibitory concentration (IC50) in assay [1] is 0.71 µM; in assay [2] it was 0.38 µM; in assay [3], 1.5 µM; in assay [4], 0.26 µM.
On the same counts, the results for `Cc1cc(-n2ccnc2)cc2[nH]c(-c3c(NCC(O)c4cccc(Cl)c4)cc[nH]c3=O)nc12` (configuration not stated) are below 0.046 µM, below 0.04 µM, below 0.04 µM and below 0.04 µM.
Consider `CNC(=O)c1cc(C)c2nc(-c3c(NCC(O)c4cccc(Cl)c4)cc[nH]c3=O)[nH]c2c1` (configuration not stated), for which the IC50 in assay [1] stood at 3.7 µM; in assay [2], 21 µM; in assay [3] it was 2.9 µM; in assay [4] it was 2.1 µM.
Turning to `Cc1cc(C(=O)N(C)C)cc2[nH]c(-c3c(NCC(O)c4cccc(Cl)c4)cc[nH]c3=O)nc12` (configuration not stated), the IC50 in assay [1] worked out at 2.2 µM; in assay [2] it was 15 µM; in assay [3], 2.8 µM; in assay [4] it was 1.7 µM.
The corresponding values for `Cc1cc(C(=O)NC2CC2)cc2[nH]c(-c3c(NCC(O)c4cccc(Cl)c4)cc[nH]c3=O)nc12` (configuration not stated) are 10 µM, 93 µM, 8.1 µM and 3.5 µM.
Consider `Cc1cc(C(=O)NC2CCCC2)cc2[nH]c(-c3c(NCC(O)c4cccc(Cl)c4)cc[nH]c3=O)nc12` (configuration not stated), for which the half-maximal inhibitory concentration (IC50) in assay [1] was 1.6 µM; in assay [2], 9.8 µM; in assay [3] it was 3.5 µM; in assay [4], 0.48 µM.
Consider `Cc1cc(C(=O)NC2CCCCC2)cc2[nH]c(-c3c(NCC(O)c4cccc(Cl)c4)cc[nH]c3=O)nc12` (configuration not stated), for which the IC50 in assay [1] was found to be 11 µM; in assay [2], 59 µM; in assay [3], 6.6 µM; in assay [4] it was 1.3 µM.
In the case of `Cc1c[nH]c(-c2cc(C)c3[nH]c(-c4c(NCC(O)c5cccc(Cl)c5)cc[nH]c4=O)nc3c2)n1` (configuration not stated), the half-inhibitory concentration (IC50) in assay [1] stood at 0.36 µM; in assay [2] it was 5.8 µM; in assay [3], 7.8 µM; in assay [4], 2 µM.
The corresponding values for `Cc1cc(C2=NCCN2C)cc2[nH]c(-c3c(NCC(O)c4cccc(Cl)c4)cc[nH]c3=O)nc12` (configuration not stated) are 35 µM, 53 µM, 91 µM and 17 µM.
For `Cc1cc(C2=NC(C)CN2)cc2[nH]c(-c3c(NCC(O)c4cccc(Cl)c4)cc[nH]c3=O)nc12` (configuration not stated), the results for the 50% inhibitory concentration (IC50) in assay [2], in assay [3] and in assay [4] were 10 µM, 67 µM and 4.7 µM, respectively.
As for `Cc1cc(-n2ccnc2)cc2nc(-c3c(NCc4ccccn4)cc[nH]c3=O)[nH]c12`, the IC50 in assay [5] was 5.7 µM; in assay [1] it was 0.08 µM; in assay [2], below 0.03 µM; in assay [3] it was below 0.03 µM; in assay [4] it was 0.1 µM.
Take `Cc1cc(Br)cc2[nH]c(-c3c(N[C@H](CO)Cc4ccccc4)cc[nH]c3=O)nc12`: the IC50 in assay [1] turned out to be 3.1 µM; in assay [2], 0.052 µM; in assay [3], 0.72 µM; in assay [4], 0.32 µM.
Turning to `CNC(=N)c1cc(C)c2nc(-c3c(NCC(O)c4cccc(Cl)c4)cc[nH]c3=O)[nH]c2c1` (configuration not stated), the half-inhibitory concentration (IC50) in assay [1] was determined as 15 µM; in assay [2], 25 µM; in assay [3] it was 76 µM; in assay [4], 3.9 µM.
For the molecule `COc1ccc(-c2cc(C)c3nc(-c4c(N[C@H](CO)Cc5ccccc5)cc[nH]c4=O)[nH]c3c2)cc1`, the IC50 was determined as 6.8 µM in assay [1], 12 µM in assay [2], 11 µM in assay [3] and 2.2 µM in assay [4].
